Data as given in article PMC11984388, “A brain-accessible peptide modulates stroke inflammatory response and neurotoxicity by targeting BDNF-receptor TrkB-T1 specific interactome” (Theranostics, 2025).
Residues, ends and D or L forms follow the SMILES beside them. *: point of attachment. Biotin = O=C1N[C@H]2[C@H](CS[C@H]2CCCCC(=O)*)N1

Assay: Peptide delivery to brain cortex of undamaged animals
Format: in vivo
Conditions: 3 nmol/g i.v. (retro-orbital), undamaged male mice, sacrificed 30 min after; Fluorescein Avidin D (Fig S5)
Description: Vehicle (saline), Bio-TMyc or Bio-TT1Ct (3 nmol/g) were retro-orbitally injected in mice one hour after induction of photothrombotic damage or, alternatively, undamaged animals. In the first case, animals were sacrificed 5 h after damage induction while, the second group was sacrificed 30 min after peptide administration. The details of brain fixation and cryoprotection for peptide visualization and/or immunohistochemistry are provided in the Supplementary material. […]
Finally, the sa mple s were mounted in Prolong Diamond. The images were acquired using an inverted Zeiss LSM 710 laser confocal microscope (Jena, Germany) with a 40x or 63x Plan-Apochromatic oil immersion objective. Images corre spond to single se ctions and were normalized for eac h colour se para tely and process ed for presenta tion with ImageJ (NIH Image) and Fiji.
Peptide visualization and immunohistochemis tr y in brain cortex
For peptide visua liz ation in undamaged or damaged brains, animals were deeply anes thetized and intra cardially perfus ed with cold PBS and 4% paraformalde hyde in PBS. Brains were post-fixed in the sa m e fixative at 4°C for 24 h and cryoprote cted in 30% suc ros e for 48 h at 4°C. […]

With `CC[C@H](C)[C@H](NC(=O)[C@H](CC(C)C)NC(=O)[C@H](CCCCN)NC(=O)[C@H](CCC(N)=O)NC(=O)[C@H](CCC(=O)O)NC(=O)[C@H](CCC(=O)O)NC(=O)[C@H](C)NC(=O)[C@H](CCCNC(=N)N)NC(=O)[C@H](CCCNC(=N)N)NC(=O)[C@H](CCCNC(=N)N)NC(=O)[C@H](CCC(N)=O)NC(=O)[C@H](CCCNC(=N)N)NC(=O)[C@H](CCCNC(=N)N)NC(=O)[C@H](CCCCN)NC(=O)[C@H](CCCCN)NC(=O)[C@H](CCCNC(=N)N)NC(=O)CNC(=O)[C@H](Cc1ccc(O)cc1)NC(=O)CCCC[C@@H]1SC[C@@H]2NC(=O)N[C@@H]21)C(=O)N[C@@H](CO)C(=O)N[C@@H](CCC(=O)O)C(=O)N[C@@H](CCC(=O)O)C(=O)N[C@@H](CC(=O)O)C(=O)N[C@@H](CC(C)C)C(=O)N[C@@H](CC(C)C)C(=O)N[C@@H](CCCNC(=N)N)C(N)=O` [Bio-TMyc, reference compound] (Biotin-YGRKKRRQRRRAEEQKLISEEDLLR-NH2) the “Crossing of the BBB and delivery to cortical cells” value was “able to cross the BBB and efficiently reach most cortical cells in 30 min”.
